Results as given in patent US11578055B2, “Triazacyclododecansulfonamide (“TCD”)-based protein secretion inhibitors” (KEZAR LIFE SCIENCES, priority 2018, dated 2023).
Where two headings read alike, the source gives them in different places.

What was measured:
[1] = tested on: PD1 signal sequence plus 10 amino acids fused to Gaussia Luciferase (PD1-ss+10aa/Gaussia Luciferase); assay: Dox Induced PD1-ss-Gluc Assay; type: cell-based; conditions: 24 hr, read-out: 24 hr Dox Inducible PD1ssGluc 293FRT/TO: Mean IC50
Method in brief: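 Compound dilutions in DMSO/media containing doxycycline were applied to a stable, inducible 293 T-REx line carrying the luciferase fusion, then incubated at 37 °C, 5% CO2. Where stereochemistry is not drawn, values relate to isomer mixtures.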

[2] = tested on: full length TNFα (amino acids 1-233) fused to Gaussia Luciferase; assay: Dox Induced TNFα-FL-Gluc Assay; type: cell-based; conditions: 24 hr, read-out: 24 hr Dox Inducible TNFaFLGluc 293FRT/TO: Mean IC50
Method in brief: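 Compounds diluted in DMSO/medium with doxycycline were incubated at 37° C, 5% CO2 with 293 T-REx cells stably carrying a Tet-regulated TNFα(1-233)-Gaussia luciferase construct. Data for structures drawn without stereochemistry refer to stereoisomer mixtures.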

[3] = tested on: full length IL-2 (amino acids 1-153) fused to Gaussia Luciferase; assay: Dox Induced IL2-FL-Gluc Assay; type: cell-based; conditions: 24 hr, read-out: 24 hr Dox Inducible IL2FLGluc 293FRT/TO: Mean IC50
Text: FIp-In 293 T-REx™ cells were transfected with pcDNA™5/FRT/TO plasmid inserted with cDNA encoding Gaussia Luciferase fused to the 3′ end of cDNA encoding full length IL-2 (amino acids 1-153). Transfected cells were selected for resistance to the selectable markers Hygromycin and Blasticidin to create a stable cell line that contained the IL-2-FL/Gaussia Luciferase cDNA insert whose expression was regulated under the T-REx™ system. The day before assay, cells were trypsinized and plated in 384-well tissue culture plates. The next day, compound dilutions in DMSO/media containing doxycycline were added to the wells and incubated at 37° C., 5% CO2.
For chemical structures that include one or more stereoisomers, but are illustrated without indicating stereochemistry, the assay data refers to a mixture of stereoisomers.

[4] = tested on: multiple myeloma cell line NCl-H929; assay: H929 Cell Viability Assay; type: cell-based, human; conditions: Homo sapiens, NCI-H929, 48 h
Method in brief: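 Viability was determined by CellTiter-Glo luminescence after a 48 h, 37 °C exposure of NCI-H929 cells to serial compound dilutions in medium containing 10% FBS. Where stereochemistry is not shown, values refer to a mix of stereoisomers.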

[5] = tested on: multiple myeloma cell line U266B1; assay: U266 Cell Viability Assay; type: cell-based, human; conditions: Homo sapiens, U-266, 48 hr
Method in brief: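 Viability was measured by CellTiter-Glo luminescence after 48 h compound exposure at 37° C, 5% CO2. The cells were U266B1 multiple myeloma cells grown in RPMI 1640 plus 10% FBS. Where stereochemistry is not shown, values apply to the stereoisomer mixture.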

[6] = In Vitro Microsome Stability Assay (human); type: in vitro ADME
Method in brief: (§1)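 Test article, added from a 0.25 mM DMSO stock, was incubated with liver microsomes (20 mg/mL stock) in 0.1 M potassium phosphate at 37° C, with the reaction started by NADPH. Samples were quenched with acetonitrile containing internal standard at 0 and 30 min and analysed by LC-MS/MS. Values are % remaining at 30 min versus 0 min, using IS-normalised AUC ratios.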

[7] = In Vitro Microsome Stability Assay (mouse); type: in vitro ADME
Method in brief: as §1

[8] = In Vitro Microsome Stability Assay (rat); type: in vitro ADME
Method in brief: as §1

[9] = In Vitro Microsome Stability Assay (monkey); type: in vitro ADME
Method in brief: as §1

[10] = human liver microsomes, 30 min w/ NADPH
[11] = mouse liver microsomes, 30 min w/ NADPH
[12] = rat liver microsomes, 30 min w/ NADPH
[13] = monkey liver microsomes, 30 min w/ NADPH
[14] = H929, read-out: 48 hr H929 Viability Celltiter-Glo: Mean EC50
[15] = U266, read-out: 48 hr U266 Viability Celltiter-Glo: Mean EC50

| SMILES | IC50 ([1]; Dox inducible, 293FRT/TO cells) | IC50 ([2]; Dox inducible, 293FRT/TO cells) | IC50 ([3]; Dox inducible, 293FRT/TO cells) | EC50 ([4]; H929, Celltiter-Glo) | EC50 ([5]; U266, Celltiter-Glo) | Liver Microsome Stability-% Left after 30 min w/ NADPH (%) Human [6, 10] | Liver Microsome Stability-% Left after 30 min w/ NADPH (%) Mouse [7, 11] | Liver Microsome Stability-% Left after 30 min w/ NADPH (%) Rat [8, 12] | Liver Microsome Stability-% Left after 30 min w/ NADPH (%) Monkey [9, 13] | IC50 ([1]; 293FRT/TO) | IC50 ([2]; 293FRT/TO) | IC50 ([3]; 293FRT/TO) | EC50 [4, 14] | EC50 [5, 15] | Liver Microsome Stability-% Left after 30 min w/ NADPH (%) Human ([6]; human, 30 min, NADPH) | Liver Microsome Stability-% Left after 30 min w/ NADPH (%) Mouse ([7]; mouse, 30 min, NADPH) | Liver Microsome Stability-% Left after 30 min w/ NADPH (%) Rat ([8]; rat, 30 min, NADPH) | Liver Microsome Stability-% Left after 30 min w/ NADPH (%) Monkey ([9]; monkey, 30 min, NADPH) |
| --- | --- | --- | --- | --- | --- | --- | --- | --- | --- | --- | --- | --- | --- | --- | --- | --- | --- | --- |
| C[C@H]1CN(S(=O)(=O)c2ccc(N(C)C)cc2)CCCN(C(=O)OCc2ccccc2)CCCN(S(=O)(=O)N2CCc3cc(Cl)ccc3C2)C1 [A103] | 446 nM | > 25000 nM | 698 nM | > 25 µM | > 25 µM | 31.6% | 42.2% | 36.5% | 38.5% |  |  |  |  |  |  |  |  |  |
| C[C@H]1CN(S(=O)(=O)c2ccc(N(C)C)cc2)CCCN(CC2CCCCC2)CCCN(S(=O)(=O)N2CC[C@H](c3ccccc3)C2)C1 [A91, 4-{[(3S)-9-(cyclohexylmethyl)-3-methyl-5-{[(3 R)-3-phenylpyrrolidin-1-yl]sulfonyl}-1,5,9-triazacyclododecan-1-yl]sulfonyl}-N,N-dimethylaniline] |  |  |  |  |  |  |  |  |  | 193 nM | 2460 nM | 377 nM | 3.01 µM | 14.7 µM | 23.7% | 25.4% | 21.6% | 21.8% |
| C[C@H]1CN(S(=O)(=O)Cc2ccccc2)CCCN(CC2CCCCC2)CCCN(S(=O)(=O)N2CCc3cc(Cl)ccc3C2)C1 [A171, 6-chloro-2-{[(3S)-9-(cyclohexylmethyl)-3-methyl-5-phenylmethanesulfonyl-1,5,9-triazacyclododecan-1-yl]sulfonyl}-1,2,3,4-tetrahydroisoquinoline] | > 25000 nM | > 25000 nM | > 25000 nM | > 25 µM | > 25 µM | 0.60% | 0.91% | 0.90% | 0.26% |  |  |  |  |  |  |  |  |  |
| COc1c(F)cccc1N1CCN(S(=O)(=O)N2CCCN(CC3CCCCC3)CCCN(S(=O)(=O)c3ccc(N(C)C)cc3)C[C@H](C)C2)CC1 [A175, 4-{[(3S)-9-(cyclohexylmethyl)-5-{[4-(3-fluoro-2-methoxyphenyl)piperazin-1-yl]sulfonyl}-3-methyl-1,5,9-triazacyclododecan-1-yl]sulfonyl}-N,N-dimethylaniline] | 9.35 nM | 393 nM | 40.4 nM | 1.44 µM | > 25 µM | 4.26% | 6.73% | 6.28% | 2.27% |  |  |  |  |  |  |  |  |  |
| Cc1cccc(N2CCN(S(=O)(=O)N3CCCN(CC4CCCCC4)CCCN(S(=O)(=O)c4ccc(N(C)C)cc4)C[C@H](C)C3)CC2)c1 [A98, 4-{[(3S)-9-(cyclohexylmethyl)-3-methyl-5-{[4-(3-methylphenyl)piperazin-1-yl]sulfonyl}-1,5,9-triazacyclododecan-1-yl]sulfonyl}-N,N-dimethylaniline] |  |  |  |  |  |  |  |  |  | 202 nM | 7340 nM | 351 nM | > 25 µM | > 25 µM | 57.5% | 55.2% | 32.8% | 26.9% |
| COc1c(N2CCN(S(=O)(=O)N3CCCN(CC4CCCCC4)CCCN(S(=O)(=O)c4ccc(N(C)C)cc4)C[C@H](C)C3)CC2)ccc(F)c1F [A174, 4-{[(3S)-9-(cyclohexylmethyl)-5-{[4-(3,4-difluoro-2-methoxyphenyl)piperazin-1-yl]sulfonyl}-3-methyl-1,5,9-triazacyclododecan-1-yl]sulfonyl}-N,N-dimethylaniline] | 15.8 nM | 566 nM | 53.3 nM | 1.86 µM | > 25 µM | 41.7% | 36.9% | 44.4% | 28.4% |  |  |  |  |  |  |  |  |  |
